{"source": "patent US11918550B2", "about": "“Sensitization of cancer cells to differentiation therapy with mitochondrial uncoupler niclosamide ethanolamine” (The Board of Trustees of the Leland Stanford Junior …, priority 2020, dated 2024)", "key": {"SK-N-BE(2) cells [1]": {"tested_on": "SK-N-BE(2) cells", "test": "Western blot of RA signaling proteins", "assay_type": "cell-based", "conditions": "24 hrs", "description": "Protein extraction and immunoblot. Cells were washed with ice-cold PBS buffer (Invitrogen, 20012050) and lysed with harvest buffer (10 mM Hepes pH 7.9, 50 mM NaCl, 500 mM sucrose, 0.1 mM EDTA and 0.5% Trition X-100) supplemented with 1% Halt inhibitors (Thermo Scientific™, 78443) for 10 minutes. Cell lysate was centrifuged at 3000 rpm for 3 min at 4° C. The supernatant containing cytosolic proteins was transferred to a different tube. The pellet containing nuclear proteins was dissolved with nuclear lysis buffer (10 mM Hepes pH 7.9, 0.5M NaCl, 0.1 mM EDTA, 0.1 mM EGTA and 0.1% NP40) supplemented with 1% Halt inhibitors (Thermo Scientific™, 78443) for 5 minutes at 4° C. Then the solution was sonicated at 4° C. for 6 cycles (1 cycle=30 s sonication and 30 s cooldown with “High” energy intensity) using a Bioruptor® Plus sonication (Diagenode, UCD-300). After sonication, the solution was centrifuged at 15,000 rpm for 10 minutes. The supernatant was kept as nuclear extraction. Protein concentration was determined by BCA assay (Thermo Scientific, 23227). 5 μg nuclear proteins or 7.5 μg cytosolic proteins were boiled in loading buffer with reducing reagents (Invitrogen, NuPAGE™ LDS Sample Buffer (4X), NP0007), then separated with SDS-PAGE (Nupage™ 4-12% Bis-Tris Protein Gels, 1.0 mm, Invitrogen™, NP0322BOX). Protein was transferred onto a nitrocellulose membrane (Thermo Scientific™, 88018). After blocking in 5% non-fat milk for 30 minutes at room temperature (RT), the primary antibody was added for incubation overnight at 4° C. After washing with TBST (CST, #9997, 1:10 diluted by deionized water) for 3 times, HRP-conjugated secondary antibodies were applied. Signals were detected with an ECL kit (Thermo Scientific™, 34577) by using BioRad Universal Hood II."}, "SK-N-BE(2) cells [2]": {"tested_on": "SK-N-BE(2) cells", "test": "Proliferation after hypoxia pretreatment and replating", "assay_type": "cell-based", "conditions": "1 μM NEN under hypoxia 4 days, replated under normoxia, counted after 5 days", "description": "Cell proliferation and clonogenic assay. 2×10^4 cells were seeded in 12 well-plate and allowed to attached overnight. Then the cells were treated with various conditions as indicated for 48 h or 96 h (n=3). After treatment, cells were counted using hemocytometer."}}}
{"smiles": "O=C(Nc1ccc([N+](=O)[O-])cc1Cl)c1cc(Cl)ccc1O", "note": "[NEN, 5-chloro-N-(2-chloro-4-nitrophenyl)-2-hydroxybenzamide compound with 2-aminoethanol (1:1)]", "values": [{"measurement": "protein level of RARγ", "setting": "SK-N-BE(2) cells [1]; 1 μM NEN alone", "result": "increased"}, {"measurement": "protein level of RARγ", "setting": "SK-N-BE(2) cells [1]; 1 μM NEN combined with 1 μM RA", "result": "further upregulated"}, {"measurement": "gain of proliferation advantage from hypoxia pretreatment", "setting": "SK-N-BE(2) cells [2]", "result": "blocked"}]}
